We go through two compounds from article PMC6380468, “Investigations on small molecule inhibitors targeting the histone H3K4 tri-methyllysine binding PHD-finger of JmjC histone demethylases” (Bioorganic & Medicinal Chemistry, 2018).

The target of one assay is T1, KDM7B (PHD-JmjC) (Homo sapiens, UniProt Q9UPP1).
T1 construct: A dual-domain construct of KDM7A/B(PHD-JmjC), consisting of a JmjC domain in addition to the PHD-finger; His; made in house
Put plainly: MALDI-TOF MS H3K9me2 demethylation assay, KDM7B(PHD-JmjC). The conditions noted are these: at 100 µM; MALDI-TOF MS; substrate H3(1–5)K4me3K9me2; read-out: KDM7B (PHD-JmjC) (Catalytic), inhibition of H3K9me2 demethylation. In kind it is biochemical. The protocol:
H3(1–15)K9me2 and H3(1–5)K4me3K9me2 were used as substrates for KDM7A(PHD-JmjC) and KDM7B(PHD-JmjC), respectively. […] For KDM7B(PHD-JmjC), inhibition was most pronounced for 1a (95%) and 2a (89%) whilst others inhibited more weakly (Table 4).
For KDM7(PHD-JmjC) assays, 2.5 µM enzyme was used, with 5 µM H3(1-15)K9me2 peptide substrate for KDM7A or H3(1-15)K4me3K9me2 for KDM7B. Final concentrations were: 1mM ascorbate, 50 µM (NH4)2Fe(II)(SO4)2 and 200 µM 2OG. The mixture was quenched using formic acid after 10 minutes (KDM7A) or 5 minutes (KDM7B).

The next assay deals with T2, KDM5A_c2 (Homo sapiens, UniProt P29375).
T2 sequence (P29375 with tags, fused parts or gaps): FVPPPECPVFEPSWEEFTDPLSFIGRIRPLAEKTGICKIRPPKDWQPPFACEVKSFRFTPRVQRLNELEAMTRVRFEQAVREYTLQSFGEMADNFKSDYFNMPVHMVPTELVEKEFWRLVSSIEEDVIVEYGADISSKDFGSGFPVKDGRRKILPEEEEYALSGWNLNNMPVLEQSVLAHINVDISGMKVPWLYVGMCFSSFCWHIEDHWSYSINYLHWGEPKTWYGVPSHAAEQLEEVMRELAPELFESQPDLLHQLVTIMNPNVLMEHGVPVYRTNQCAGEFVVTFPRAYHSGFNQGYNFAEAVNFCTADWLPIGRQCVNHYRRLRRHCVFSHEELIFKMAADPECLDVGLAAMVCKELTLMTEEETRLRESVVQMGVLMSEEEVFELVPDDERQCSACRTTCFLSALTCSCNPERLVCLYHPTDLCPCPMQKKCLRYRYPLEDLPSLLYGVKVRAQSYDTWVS
As to the kind of experiment: Formaldehyde dehydrogenase (FDH) enzyme-coupled fluorescence assay, kinetic analysis. In kind it is biochemical. On the procedure:
Enzyme mixture (25 µL) containing KDM5A-c2 (0.5 µM) and FDH (2.0 µM) in FDH buffer [50mM HEPES (50 mM), Tween20 (0.1%), NaCl (50 mM), pH 7.5 in MQ)] was prepared and aliquoted in a 384-well flat-bottom microplate (µClear, Greiner). The peptide mixture (25 µL) [ascorbate (2 mM), (NH4)2Fe(II)(SO4)2 (100 µM), 2OG (400 µM), H3(1-21)K4me3 peptide (ranging from 0 to 100 µM), β-NAD (500 µM), 2a (0 to 160 µM, in DMSO (2% final in this solution)) in FDH buffer] was added to initiate the reaction and the fluorescence was monitored (every 30 seconds over 25 min at 25.0 °C) using the PHERAstar (BMG LABTECH). The initial rates at each peptide concentrations were used to generate the Michaelis-Menten plots. Combined datasets from two independent experiments were globally fitted to a mixed inhibition model using Prism Ver 7.01, and Ki and α values were determined. Lineweaver-Burk plots were also generated using Prism Ver 7.01

Setting [1] is: KDM5A_c2, mixed inhibition model, with respect to H3K4me3 substrate, N=2.

T1 sequence (Q9UPP1 37-483 limits assumed): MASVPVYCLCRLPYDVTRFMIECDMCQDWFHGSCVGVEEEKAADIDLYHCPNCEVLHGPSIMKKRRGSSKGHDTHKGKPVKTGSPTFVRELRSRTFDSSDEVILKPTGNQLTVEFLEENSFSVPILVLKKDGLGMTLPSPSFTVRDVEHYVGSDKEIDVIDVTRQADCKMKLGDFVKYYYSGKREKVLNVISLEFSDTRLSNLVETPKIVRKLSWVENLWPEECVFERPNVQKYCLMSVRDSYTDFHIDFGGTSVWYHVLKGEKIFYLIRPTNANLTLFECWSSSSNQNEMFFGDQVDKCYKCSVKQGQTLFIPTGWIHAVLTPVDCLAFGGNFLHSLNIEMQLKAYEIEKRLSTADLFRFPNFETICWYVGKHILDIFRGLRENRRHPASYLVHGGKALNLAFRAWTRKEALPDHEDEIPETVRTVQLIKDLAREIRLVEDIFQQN

Consider `CCCCc1oc2ccccc2c1C(=O)c1ccc(OCCCN(C)C)cc1` [Compound 1a, (2-Butylbenzofuran-3-yl)(4-(3-(dimethylamino)propoxy)phenyl)methanone], for which the inhibition at 100 µM at KDM7B (PHD-JmjC) was 95%.
Regarding `CCCCc1oc2ccccc2c1C(=O)c1ccc(OCCC[N+](C)(C)C)cc1.[I-]` [Compound 2a, 3-(4-(2-Butylbenzofuran-3-carbonyl)phenoxy)-N,N,N-trimethylpropan-1-aminium iodide], the “substrate of KDM5A_c2 (formaldehyde production in the absence of H3K4me3)” value on KDM5A_c2 (FDH coupled assay, no H3K4me3) was “not a substrate”. Moreover, the “mode of inhibition with respect to H3K4me3” value at KDM5A_c2 (KDM5A_c2, Lineweaver-Burk plots) is reported as “non-competitive”. At KDM5A_c2 (setting [1]), this compound returned a Ki of 74 ± 28 µM and a α of 1.64 ± 0.85. In addition, the inhibition at 100 µM at KDM7B (PHD-JmjC) was determined as 89%.
